Source: ChEMBL document CHEMBL2424577, “Cytotoxicity and DNA-binding property of water-soluble naphthalene diimide derivatives bearing 2-oligoethoxy ethanamine side chain end-labeled with tertiary amino groups” (Med Chem Res, 2013)
Activity calls are given as the source filed them. The calls are words filed in the database; no cut-off is given here.

System: not listed separately
Test: Binding affinity to G-quadruplex DNA (unknown origin) in phosphate buffer at pH 7.4 at 2 x 10 '-5 M by CD spectra analysis
Conditions: not given
In the case of `CN(C)CCN1C(=O)c2ccc3c4c(c(NCCOCCOCCOCCN5CCOCC5)cc(c24)C1=O)C(=O)N(CCN(C)C)C3=O`, the Activity is reported as “Active”. With `CN(C)CCN1C(=O)c2ccc3c4c(c(NCCOCCOCCN5CCOCC5)cc(c24)C1=O)C(=O)N(CCN(C)C)C3=O` the Activity was “Active”. In the case of `CN(C)CCN1C(=O)c2ccc3c4c(c(NCCOCCN5CCOCC5)cc(c24)C1=O)C(=O)N(CCN(C)C)C3=O`, the Activity is reported as “Active”.

System: DNA
Test: Binding affinity to calf thymus DNA in phosphate buffer at pH 7.4 at 2 x 10 '-5 M by CD spectra analysis
Assay type: nucleic-acid assay
Conditions: Bos taurus
In the case of `CN(C)CCN1C(=O)c2ccc3c4c(c(NCCOCCOCCOCCN5CCOCC5)cc(c24)C1=O)C(=O)N(CCN(C)C)C3=O`, the Activity is reported as “Active”. With `CN(C)CCN1C(=O)c2ccc3c4c(c(NCCOCCOCCN5CCOCC5)cc(c24)C1=O)C(=O)N(CCN(C)C)C3=O` the Activity was “Active”. In the case of `CN(C)CCN1C(=O)c2ccc3c4c(c(NCCOCCN5CCOCC5)cc(c24)C1=O)C(=O)N(CCN(C)C)C3=O`, the Activity is reported as “Active”.

System: not listed separately
Test: Binding affinity to G-quadruplex DNA (unknown origin) in phosphate buffer at pH 7.4 at 5 x 10 '-5 M by fluorescence spectroscopy
Conditions: not given
Molecule `CN(C)CCN1C(=O)c2ccc3c4c(c(NCCOCCOCCOCCN5CCOCC5)cc(c24)C1=O)C(=O)N(CCN(C)C)C3=O` has a K of 1.5 ×10⁴ /M. With `CN(C)CCN1C(=O)c2ccc3c4c(c(NCCOCCOCCN5CCOCC5)cc(c24)C1=O)C(=O)N(CCN(C)C)C3=O` the K was 2.3 ×10⁴ /M. Work on `CN(C)CCN1C(=O)c2ccc3c4c(c(NCCOCCN5CCOCC5)cc(c24)C1=O)C(=O)N(CCN(C)C)C3=O` yielded a K of 6.8 ×10⁵ /M.

System: DNA
Test: Binding affinity to calf thymus DNA in phosphate buffer at pH 7.4 at 5 x 10 '-5 M by fluorescence spectroscopy
Assay type: nucleic-acid assay
Conditions: Bos taurus
Work on `CN(C)CCN1C(=O)c2ccc3c4c(c(NCCOCCOCCOCCN5CCOCC5)cc(c24)C1=O)C(=O)N(CCN(C)C)C3=O` yielded a K of 3.8 ×10⁵ /M. `CN(C)CCN1C(=O)c2ccc3c4c(c(NCCOCCOCCN5CCOCC5)cc(c24)C1=O)C(=O)N(CCN(C)C)C3=O` gave a K of 5.4 ×10⁵ /M. Work on `CN(C)CCN1C(=O)c2ccc3c4c(c(NCCOCCN5CCOCC5)cc(c24)C1=O)C(=O)N(CCN(C)C)C3=O` yielded a K of 3.9 ×10⁶ /M.

System: not listed separately
Test: Binding affinity to G-quadruplex DNA (unknown origin) in phosphate buffer at pH 7.4 assessed as hypochromicity at 5 x 10 '-5 M by Uv-Vis spectroscopy
Conditions: not given
Molecule `CN(C)CCN1C(=O)c2ccc3c4c(c(NCCOCCOCCOCCN5CCOCC5)cc(c24)C1=O)C(=O)N(CCN(C)C)C3=O` has an Activity of 9%. `CN(C)CCN1C(=O)c2ccc3c4c(c(NCCOCCOCCN5CCOCC5)cc(c24)C1=O)C(=O)N(CCN(C)C)C3=O` gave an Activity of 11%. Work on `CN(C)CCN1C(=O)c2ccc3c4c(c(NCCOCCN5CCOCC5)cc(c24)C1=O)C(=O)N(CCN(C)C)C3=O` yielded an Activity of 13%.

System: DNA
Test: Binding affinity to calf thymus DNA in phosphate buffer at pH 7.4 assessed as hypochromicity at 5 x 10 '-5 M by Uv-Vis spectroscopy
Assay type: nucleic-acid assay
Conditions: Bos taurus
For `CN(C)CCN1C(=O)c2ccc3c4c(c(NCCOCCOCCOCCN5CCOCC5)cc(c24)C1=O)C(=O)N(CCN(C)C)C3=O`, the Activity was 25%. With `CN(C)CCN1C(=O)c2ccc3c4c(c(NCCOCCOCCN5CCOCC5)cc(c24)C1=O)C(=O)N(CCN(C)C)C3=O` the Activity was 28%. With `CN(C)CCN1C(=O)c2ccc3c4c(c(NCCOCCN5CCOCC5)cc(c24)C1=O)C(=O)N(CCN(C)C)C3=O` the Activity was 31%.

System: not listed separately
Test: Binding affinity to G-quadruplex DNA (unknown origin) in phosphate buffer at pH 7.4 at 5 x 10 '-5 M by Uv-Vis spectroscopy
Conditions: not given
Molecule `CN(C)CCN1C(=O)c2ccc3c4c(c(NCCOCCOCCOCCN5CCOCC5)cc(c24)C1=O)C(=O)N(CCN(C)C)C3=O` has a Kb of 1.5 ×10⁴ /M. Molecule `CN(C)CCN1C(=O)c2ccc3c4c(c(NCCOCCOCCN5CCOCC5)cc(c24)C1=O)C(=O)N(CCN(C)C)C3=O` has a Kb of 4.8 ×10⁴ /M. Molecule `CN(C)CCN1C(=O)c2ccc3c4c(c(NCCOCCN5CCOCC5)cc(c24)C1=O)C(=O)N(CCN(C)C)C3=O` has a Kb of 2.8 ×10⁵ /M.

System: DNA
Test: Binding affinity to calf thymus DNA in phosphate buffer at pH 7.4 at 5 x 10 '-5 M by Uv-Vis spectroscopy
Assay type: nucleic-acid assay
Conditions: Bos taurus
`CN(C)CCN1C(=O)c2ccc3c4c(c(NCCOCCOCCOCCN5CCOCC5)cc(c24)C1=O)C(=O)N(CCN(C)C)C3=O` gave a Kb of 2.3 ×10⁵ /M. `CN(C)CCN1C(=O)c2ccc3c4c(c(NCCOCCOCCN5CCOCC5)cc(c24)C1=O)C(=O)N(CCN(C)C)C3=O` gave a Kb of 4.5 ×10⁵ /M. For `CN(C)CCN1C(=O)c2ccc3c4c(c(NCCOCCN5CCOCC5)cc(c24)C1=O)C(=O)N(CCN(C)C)C3=O`, the Kb was 2.1 ×10⁶ /M.

System: A549
Test: Antiproliferative activity against human A549 cells after 48 hrs by MTT assay
Assay type: functional, cell-based
Conditions: A549, 48 h
For `CN(C)CCN1C(=O)c2ccc3c4c(c(NCCOCCOCCOCCN5CCCCC5)cc(c24)C1=O)C(=O)N(CCN(C)C)C3=O`, the IC50 was 6.87 µM. `CN(C)CCN1C(=O)c2ccc3c4c(c(NCCOCCN5CCCC5)cc(c24)C1=O)C(=O)N(CCN(C)C)C3=O` gave an IC50 of 2.03 µM. With `CN(C)CCN1C(=O)c2ccc3c4c(c(NCCOCCOCCOCCN5CCOCC5)cc(c24)C1=O)C(=O)N(CCN(C)C)C3=O` the IC50 was 2.53 µM. `CN(C)CCN1C(=O)c2ccc3c4c(c(NCCOCCOCCN5CCCC5)cc(c24)C1=O)C(=O)N(CCN(C)C)C3=O` gave an IC50 of 2.91 µM. Work on `CN(C)CCN1C(=O)c2ccc3c4c(c(NCCOCCOCCN5CCCCC5)cc(c24)C1=O)C(=O)N(CCN(C)C)C3=O` yielded an IC50 of 2.93 µM. For `CN(C)CCN1C(=O)c2ccc3c4c(c(NCCOCCN5CCN(C)CC5)cc(c24)C1=O)C(=O)N(CCN(C)C)C3=O`, the IC50 was 2.94 µM. For `CN(C)CCN1C(=O)c2ccc3c4c(c(NCCOCCOCCOCCN5CCN(C)CC5)cc(c24)C1=O)C(=O)N(CCN(C)C)C3=O`, the IC50 was 7.42 µM. Molecule `CN(C)CCN1C(=O)c2ccc3c4c(c(NCCOCCOCCN5CCOCC5)cc(c24)C1=O)C(=O)N(CCN(C)C)C3=O` has an IC50 of 2.83 µM. Work on `CN(C)CCN1C(=O)c2ccc3c4c(c(NCCOCCOCCOCCN5CCCC5)cc(c24)C1=O)C(=O)N(CCN(C)C)C3=O` yielded an IC50 of 7.12 µM. Molecule `CN(C)CCN1C(=O)c2ccc3c4c(c(NCCOCCOCCN5CCN(C)CC5)cc(c24)C1=O)C(=O)N(CCN(C)C)C3=O` has an IC50 of 6.87 µM. Work on `CN(C)CCN1C(=O)c2ccc3c4c(c(NCCOCCN5CCOCC5)cc(c24)C1=O)C(=O)N(CCN(C)C)C3=O` yielded an IC50 of 2.95 µM. For `CN(C)CCN1C(=O)c2ccc3c4c(c(NCCOCCN5CCCCC5)cc(c24)C1=O)C(=O)N(CCN(C)C)C3=O`, the IC50 was 2.19 µM.

System: HeLa
Test: Antiproliferative activity against human HeLa cells after 48 hrs by MTT assay
Assay type: functional, cell-based
Conditions: not given
`CN(C)CCN1C(=O)c2ccc3c4c(c(NCCOCCOCCOCCN5CCCCC5)cc(c24)C1=O)C(=O)N(CCN(C)C)C3=O` showed an IC50 of 4.06 µM. Molecule `CN(C)CCN1C(=O)c2ccc3c4c(c(NCCOCCN5CCCC5)cc(c24)C1=O)C(=O)N(CCN(C)C)C3=O` has an IC50 of 2.15 µM. `CN(C)CCN1C(=O)c2ccc3c4c(c(NCCOCCOCCOCCN5CCOCC5)cc(c24)C1=O)C(=O)N(CCN(C)C)C3=O` gave an IC50 of 3.8 µM. Molecule `CN(C)CCN1C(=O)c2ccc3c4c(c(NCCOCCOCCN5CCCC5)cc(c24)C1=O)C(=O)N(CCN(C)C)C3=O` has an IC50 of 5 µM. In the case of `CN(C)CCN1C(=O)c2ccc3c4c(c(NCCOCCOCCN5CCCCC5)cc(c24)C1=O)C(=O)N(CCN(C)C)C3=O`, the IC50 is reported as 5.95 µM. Molecule `CN(C)CCN1C(=O)c2ccc3c4c(c(NCCOCCN5CCN(C)CC5)cc(c24)C1=O)C(=O)N(CCN(C)C)C3=O` has an IC50 of 5.19 µM. For `CN(C)CCN1C(=O)c2ccc3c4c(c(NCCOCCOCCOCCN5CCN(C)CC5)cc(c24)C1=O)C(=O)N(CCN(C)C)C3=O`, the IC50 was 2.88 µM. In the case of `CN(C)CCN1C(=O)c2ccc3c4c(c(NCCOCCOCCN5CCOCC5)cc(c24)C1=O)C(=O)N(CCN(C)C)C3=O`, the IC50 is reported as 5.93 µM. For `CN(C)CCN1C(=O)c2ccc3c4c(c(NCCOCCOCCOCCN5CCCC5)cc(c24)C1=O)C(=O)N(CCN(C)C)C3=O`, the IC50 was 5.17 µM. `CN(C)CCN1C(=O)c2ccc3c4c(c(NCCOCCOCCN5CCN(C)CC5)cc(c24)C1=O)C(=O)N(CCN(C)C)C3=O` gave an IC50 of 9.8 µM. For `CN(C)CCN1C(=O)c2ccc3c4c(c(NCCOCCN5CCOCC5)cc(c24)C1=O)C(=O)N(CCN(C)C)C3=O`, the IC50 was 2.61 µM. For `CN(C)CCN1C(=O)c2ccc3c4c(c(NCCOCCN5CCCCC5)cc(c24)C1=O)C(=O)N(CCN(C)C)C3=O`, the IC50 was 2.08 µM.

System: K562
Test: Antiproliferative activity against human K562 cells after 48 hrs by MTT assay
Assay type: functional, cell-based
Conditions: K562, 48 h
For `CN(C)CCN1C(=O)c2ccc3c4c(c(NCCOCCOCCOCCN5CCCCC5)cc(c24)C1=O)C(=O)N(CCN(C)C)C3=O`, the IC50 was 2.94 µM. With `CN(C)CCN1C(=O)c2ccc3c4c(c(NCCOCCN5CCCC5)cc(c24)C1=O)C(=O)N(CCN(C)C)C3=O` the IC50 was 0.59 µM. Molecule `CN(C)CCN1C(=O)c2ccc3c4c(c(NCCOCCOCCOCCN5CCOCC5)cc(c24)C1=O)C(=O)N(CCN(C)C)C3=O` has an IC50 of 5.79 µM. Work on `CN(C)CCN1C(=O)c2ccc3c4c(c(NCCOCCOCCN5CCCC5)cc(c24)C1=O)C(=O)N(CCN(C)C)C3=O` yielded an IC50 of 2.52 µM. Molecule `CN(C)CCN1C(=O)c2ccc3c4c(c(NCCOCCOCCN5CCCCC5)cc(c24)C1=O)C(=O)N(CCN(C)C)C3=O` has an IC50 of 1.24 µM. `CN(C)CCN1C(=O)c2ccc3c4c(c(NCCOCCN5CCN(C)CC5)cc(c24)C1=O)C(=O)N(CCN(C)C)C3=O` gave an IC50 of 3.03 µM. `CN(C)CCN1C(=O)c2ccc3c4c(c(NCCOCCOCCOCCN5CCN(C)CC5)cc(c24)C1=O)C(=O)N(CCN(C)C)C3=O` gave an IC50 of 3.63 µM. In the case of `CN(C)CCN1C(=O)c2ccc3c4c(c(NCCOCCOCCN5CCOCC5)cc(c24)C1=O)C(=O)N(CCN(C)C)C3=O`, the IC50 is reported as 1.48 µM. With `CN(C)CCN1C(=O)c2ccc3c4c(c(NCCOCCOCCOCCN5CCCC5)cc(c24)C1=O)C(=O)N(CCN(C)C)C3=O` the IC50 was 7.1 µM. `CN(C)CCN1C(=O)c2ccc3c4c(c(NCCOCCOCCN5CCN(C)CC5)cc(c24)C1=O)C(=O)N(CCN(C)C)C3=O` showed an IC50 of 2.78 µM. Work on `CN(C)CCN1C(=O)c2ccc3c4c(c(NCCOCCN5CCOCC5)cc(c24)C1=O)C(=O)N(CCN(C)C)C3=O` yielded an IC50 of 0.67 µM. With `CN(C)CCN1C(=O)c2ccc3c4c(c(NCCOCCN5CCCCC5)cc(c24)C1=O)C(=O)N(CCN(C)C)C3=O` the IC50 was 0.61 µM.
